Measurements taken from US4725683A, “Fluorophenoxyphenoxypropionates and derivatives thereof” (The Dow Chemical Company, priority 1985, dated 1988).

Key:
Assay in all cases: Selective postemergence, track sprayer
Format in all cases: in vivo
Annual Bluegrass = tested on: Annual Bluegrass
Outline: (§1)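 Each pot, with plants near 10 cm in height, was sprayed using a track sprayer set to deliver dosages in 280.6 L/hectare of water plus 0.1% Tween-20. After two weeks under growth-favourable conditions, plants were scored from 0 (no effect) to 100 (complete kill).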

Barnyardgrass = tested on: Barnyardgrass
Outline: as §1

Cheatgrass = tested on: Cheatgrass
Outline: as §1

Crabgrass = tested on: Crabgrass
Outline: as §1

Downey Brome = tested on: Downey Brome
Outline: as §1

Fall Panicum = tested on: Fall Panicum
Outline: as §1

Goosegrass = tested on: Goosegrass
Outline: as §1

Green Foxtail = tested on: Green Foxtail
Outline: as §1

Johnsongrass = tested on: Johnsongrass
Outline: as §1

Wheat = tested on: Wheat
Outline: as §1

Wild Oats = tested on: Wild Oats
Outline: as §1

Wild Proso Millet = tested on: Wild Proso Millet
Outline: as §1

COC(=O)[C@@H](C)Oc1ccc(Oc2ccc(Br)cc2F)cc1 [4-Bromo-(R-Enantiomer), R enantiomer of 2-[4-(4-bromo-2-fluorophenoxy)phenoxy]propionic acid methyl ester]
Percent Control (Annual Bluegrass; 0.00055 kgs/hectare): 0%
Percent Control (Annual Bluegrass; 0.0011 kgs/hectare): 0%
Percent Control (Annual Bluegrass; 0.0023 kgs/hectare): 0%
Percent Control (Annual Bluegrass; 0.0045 kgs/hectare): 0%
Percent Control (Annual Bluegrass; 0.009 kgs/hectare): 0%
Percent Control (Annual Bluegrass; 0.018 kgs/hectare): 0%
Percent Control (Annual Bluegrass; 0.035 kgs/hectare): 0%
Percent Control (Annual Bluegrass; 0.07 kgs/hectare): 0%
Percent Control (Annual Bluegrass; 0.14 kgs/hectare): 0%
Percent Control (Annual Bluegrass; 0.28 kgs/hectare): 0%
Percent Control (Barnyardgrass; 0.00055 kgs/hectare): 90%
Percent Control (Barnyardgrass; 0.0011 kgs/hectare): 80%
Percent Control (Barnyardgrass; 0.0023 kgs/hectare): 100%
Percent Control (Barnyardgrass; 0.0045 kgs/hectare): 100%
Percent Control (Barnyardgrass; 0.009 kgs/hectare): 100%
Percent Control (Barnyardgrass; 0.018 kgs/hectare): 100%
Percent Control (Barnyardgrass; 0.035 kgs/hectare): 100%
Percent Control (Barnyardgrass; 0.07 kgs/hectare): 100%
Percent Control (Barnyardgrass; 0.14 kgs/hectare): 100%
Percent Control (Barnyardgrass; 0.28 kgs/hectare): 100%
Percent Control (Cheatgrass; 0.00055 kgs/hectare): 0%
Percent Control (Cheatgrass; 0.0011 kgs/hectare): 0%
Percent Control (Cheatgrass; 0.0023 kgs/hectare): 0%
Percent Control (Cheatgrass; 0.0045 kgs/hectare): 0%
Percent Control (Cheatgrass; 0.009 kgs/hectare): 0%
Percent Control (Cheatgrass; 0.018 kgs/hectare): 0%
Percent Control (Cheatgrass; 0.035 kgs/hectare): 0%
Percent Control (Cheatgrass; 0.07 kgs/hectare): 0%
Percent Control (Cheatgrass; 0.14 kgs/hectare): 0%
Percent Control (Cheatgrass; 0.28 kgs/hectare): 0%
Percent Control (Crabgrass; 0.00055 kgs/hectare): 0%
Percent Control (Crabgrass; 0.0011 kgs/hectare): 0%
Percent Control (Crabgrass; 0.0023 kgs/hectare): 0%
Percent Control (Crabgrass; 0.0045 kgs/hectare): 50%
Percent Control (Crabgrass; 0.009 kgs/hectare): 90%
Percent Control (Crabgrass; 0.018 kgs/hectare): 90%
Percent Control (Crabgrass; 0.035 kgs/hectare): 70%
Percent Control (Crabgrass; 0.07 kgs/hectare): 100%
Percent Control (Crabgrass; 0.14 kgs/hectare): 100%
Percent Control (Crabgrass; 0.28 kgs/hectare): 100%
Percent Control (Downey Brome; 0.00055 kgs/hectare): 0%
Percent Control (Downey Brome; 0.0011 kgs/hectare): 0%
Percent Control (Downey Brome; 0.0023 kgs/hectare): 0%
Percent Control (Downey Brome; 0.0045 kgs/hectare): 0%
Percent Control (Downey Brome; 0.009 kgs/hectare): 0%
Percent Control (Downey Brome; 0.018 kgs/hectare): 0%
Percent Control (Downey Brome; 0.035 kgs/hectare): 0%
Percent Control (Downey Brome; 0.07 kgs/hectare): 0%
Percent Control (Downey Brome; 0.14 kgs/hectare): 0%
Percent Control (Downey Brome; 0.28 kgs/hectare): 0%
Percent Control (Fall Panicum; 0.00055 kgs/hectare): 20%
Percent Control (Fall Panicum; 0.0011 kgs/hectare): 30%
Percent Control (Fall Panicum; 0.0023 kgs/hectare): 50%
Percent Control (Fall Panicum; 0.0045 kgs/hectare): 80%
Percent Control (Fall Panicum; 0.009 kgs/hectare): 80%
Percent Control (Fall Panicum; 0.018 kgs/hectare): 100%
Percent Control (Fall Panicum; 0.035 kgs/hectare): 100%
Percent Control (Fall Panicum; 0.07 kgs/hectare): 100%
Percent Control (Fall Panicum; 0.14 kgs/hectare): 100%
Percent Control (Fall Panicum; 0.28 kgs/hectare): 100%
Percent Control (Goosegrass; 0.00055 kgs/hectare): 0%
Percent Control (Goosegrass; 0.0011 kgs/hectare): 0%
Percent Control (Goosegrass; 0.0023 kgs/hectare): 0%
Percent Control (Goosegrass; 0.0045 kgs/hectare): 20%
Percent Control (Goosegrass; 0.009 kgs/hectare): 70%
Percent Control (Goosegrass; 0.018 kgs/hectare): 50%
Percent Control (Goosegrass; 0.035 kgs/hectare): 70%
Percent Control (Goosegrass; 0.07 kgs/hectare): 70%
Percent Control (Goosegrass; 0.14 kgs/hectare): 80%
Percent Control (Goosegrass; 0.28 kgs/hectare): 80%
Percent Control (Green Foxtail; 0.00055 kgs/hectare): 30%
Percent Control (Green Foxtail; 0.0011 kgs/hectare): 70%
Percent Control (Green Foxtail; 0.0023 kgs/hectare): 90%
Percent Control (Green Foxtail; 0.0045 kgs/hectare): 95%
Percent Control (Green Foxtail; 0.009 kgs/hectare): 95%
Percent Control (Green Foxtail; 0.018 kgs/hectare): 100%
Percent Control (Green Foxtail; 0.035 kgs/hectare): 100%
Percent Control (Green Foxtail; 0.07 kgs/hectare): 100%
Percent Control (Green Foxtail; 0.14 kgs/hectare): 100%
Percent Control (Green Foxtail; 0.28 kgs/hectare): 100%
Percent Control (Johnsongrass; 0.00055 kgs/hectare): 0%
Percent Control (Johnsongrass; 0.0011 kgs/hectare): 0%
Percent Control (Johnsongrass; 0.0023 kgs/hectare): 0%
Percent Control (Johnsongrass; 0.0045 kgs/hectare): 0%
Percent Control (Johnsongrass; 0.009 kgs/hectare): 0%
Percent Control (Johnsongrass; 0.018 kgs/hectare): 0%
Percent Control (Johnsongrass; 0.035 kgs/hectare): 0%
Percent Control (Johnsongrass; 0.07 kgs/hectare): 20%
Percent Control (Johnsongrass; 0.14 kgs/hectare): 40%
Percent Control (Johnsongrass; 0.28 kgs/hectare): 70%
Percent Control (Wheat; 0.00055 kgs/hectare): 0%
Percent Control (Wheat; 0.0011 kgs/hectare): 0%
Percent Control (Wheat; 0.0023 kgs/hectare): 0%
Percent Control (Wheat; 0.0045 kgs/hectare): 0%
Percent Control (Wheat; 0.009 kgs/hectare): 0%
Percent Control (Wheat; 0.018 kgs/hectare): 0%
Percent Control (Wheat; 0.035 kgs/hectare): 0%
Percent Control (Wheat; 0.07 kgs/hectare): 0%
Percent Control (Wheat; 0.14 kgs/hectare): 0%
Percent Control (Wheat; 0.28 kgs/hectare): 0%
Percent Control (Wild Oats; 0.00055 kgs/hectare): 0%
Percent Control (Wild Oats; 0.0011 kgs/hectare): 0%
Percent Control (Wild Oats; 0.0023 kgs/hectare): 0%
Percent Control (Wild Oats; 0.0045 kgs/hectare): 0%
Percent Control (Wild Oats; 0.009 kgs/hectare): 20%
Percent Control (Wild Oats; 0.018 kgs/hectare): 20%
Percent Control (Wild Oats; 0.035 kgs/hectare): 40%
Percent Control (Wild Oats; 0.07 kgs/hectare): 70%
Percent Control (Wild Oats; 0.14 kgs/hectare): 70%
Percent Control (Wild Oats; 0.28 kgs/hectare): 95%
Percent Control (Wild Proso Millet; 0.00055 kgs/hectare): 30%
Percent Control (Wild Proso Millet; 0.0011 kgs/hectare): 30%
Percent Control (Wild Proso Millet; 0.0023 kgs/hectare): 80%
Percent Control (Wild Proso Millet; 0.0045 kgs/hectare): 100%
Percent Control (Wild Proso Millet; 0.009 kgs/hectare): 95%
Percent Control (Wild Proso Millet; 0.018 kgs/hectare): 100%
Percent Control (Wild Proso Millet; 0.035 kgs/hectare): 100%
Percent Control (Wild Proso Millet; 0.07 kgs/hectare): 100%
Percent Control (Wild Proso Millet; 0.14 kgs/hectare): 100%
Percent Control (Wild Proso Millet; 0.28 kgs/hectare): 100%
